# In US10202361B2, “Pyridazinones as herbicides” (E I DU PONT DE NEMOURS AND COMPANY, priority 2014, dated 2019):
# Key:
# Assay in all cases: Test D pre-/postemergence controlled growth environment herbicide test
# Assay type in all cases: in vivo
# Details in all cases: scale 0 to 100
# [1] = test system: barley, spring (spring barley, Hordeum vulgare)
# Summary of the method: (§1)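 Preemergence: seeds sown in silt loam soil and sprayed with test chemicals in a non-phytotoxic solvent mixture containing surfactant. Postemergence: plants grown in peat/vermiculite planting medium and sprayed at 2 to 18 cm (1- to 4-leaf stage). Visual rating versus controls after 14 to 21 d, 0 (no effect) to 100 (complete control).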
# [2] = test system: buckwheat, wild (wild buckwheat, Polygonum convolvulus)
# Summary of the method: as §1
# [3] = test system: chamomile (scentless chamomile, Matricaria inodora)
# Summary of the method: as §1
# [4] = test system: downy bromegrass (Bromus tectorum)
# Summary of the method: as §1
# [5] = test system: field violet (Viola arvensis)
# Summary of the method: as §1
# [6] = test system: galium (catchweed bedstraw, Galium aparine)
# Summary of the method: as §1
# [7] = test system: mustard, wild (wild mustard, Sinapis arvensis)
# Summary of the method: as §1
# [8] = test system: pigweed (Amaranthus retroflexus)
# Summary of the method: as §1
# [9] = test system: wheat, spring (spring wheat, Triticum aestivum)
# Summary of the method: as §1
# [10] = test system: wheat, winter (winter wheat, Triticum aestivum)
# Summary of the method: as §1
# [11] = test system: windgrass (Apera spica-venti)
# Summary of the method: as §1
structure (smiles),measurement,setting,value
"Cc1cc(=O)n(-c2ccc(C(F)(F)F)cc2)nc1Cc1ccnc(C(F)(F)F)c1 [Compound 2, 5-methyl-2-[4-(trifluoromethyl)phenyl]-6-[[2-(trifluoromethyl)-4-pyridinyl]methyl]-3(2H)-pyridazinone]",Plant response rating,"[1]; Postemergence, 31 g ai/ha",10
same,Plant response rating,"[1]; Postemergence, 62 g ai/ha",10
same,Plant response rating,"[1]; Postemergence, 125 g ai/ha",10
same,Plant response rating,"[1]; Postemergence, 250 g ai/ha",15
same,Plant response rating,"[1]; Postemergence, 500 g ai/ha",25
same,Plant response rating,"[1]; Preemergence, 31 g ai/ha",0
same,Plant response rating,"[1]; Preemergence, 62 g ai/ha",0
same,Plant response rating,"[1]; Preemergence, 125 g ai/ha",0
same,Plant response rating,"[1]; Preemergence, 250 g ai/ha",25
same,Plant response rating,"[1]; Preemergence, 500 g ai/ha",50
same,Plant response rating,"[2]; Postemergence, 31 g ai/ha",20
same,Plant response rating,"[2]; Postemergence, 62 g ai/ha",30
same,Plant response rating,"[2]; Postemergence, 125 g ai/ha",50
same,Plant response rating,"[2]; Postemergence, 250 g ai/ha",70
same,Plant response rating,"[2]; Postemergence, 500 g ai/ha",80
same,Plant response rating,"[2]; Preemergence, 31 g ai/ha",0
same,Plant response rating,"[2]; Preemergence, 62 g ai/ha",20
same,Plant response rating,"[2]; Preemergence, 125 g ai/ha",25
same,Plant response rating,"[2]; Preemergence, 250 g ai/ha",100
same,Plant response rating,"[2]; Preemergence, 500 g ai/ha",100
same,Plant response rating,"[3]; Postemergence, 31 g ai/ha",30
same,Plant response rating,"[3]; Postemergence, 62 g ai/ha",30
same,Plant response rating,"[3]; Postemergence, 125 g ai/ha",30
same,Plant response rating,"[3]; Postemergence, 250 g ai/ha",40
same,Plant response rating,"[3]; Postemergence, 500 g ai/ha",60
same,Plant response rating,"[3]; Preemergence, 31 g ai/ha",0
same,Plant response rating,"[3]; Preemergence, 62 g ai/ha",0
same,Plant response rating,"[3]; Preemergence, 125 g ai/ha",25
same,Plant response rating,"[3]; Preemergence, 250 g ai/ha",50
same,Plant response rating,"[3]; Preemergence, 500 g ai/ha",90
same,Plant response rating,"[4]; Postemergence, 31 g ai/ha",10
same,Plant response rating,"[4]; Postemergence, 62 g ai/ha",30
same,Plant response rating,"[4]; Postemergence, 125 g ai/ha",30
same,Plant response rating,"[4]; Postemergence, 250 g ai/ha",40
same,Plant response rating,"[4]; Postemergence, 500 g ai/ha",45
same,Plant response rating,"[4]; Preemergence, 31 g ai/ha",0
same,Plant response rating,"[4]; Preemergence, 62 g ai/ha",0
same,Plant response rating,"[4]; Preemergence, 125 g ai/ha",0
same,Plant response rating,"[4]; Preemergence, 250 g ai/ha",20
same,Plant response rating,"[4]; Preemergence, 500 g ai/ha",25
same,Plant response rating,"[5]; Postemergence, 31 g ai/ha",50
same,Plant response rating,"[5]; Postemergence, 62 g ai/ha",90
same,Plant response rating,"[5]; Postemergence, 125 g ai/ha",100
same,Plant response rating,"[5]; Postemergence, 250 g ai/ha",100
same,Plant response rating,"[5]; Postemergence, 500 g ai/ha",100
same,Plant response rating,"[5]; Preemergence, 31 g ai/ha",60
same,Plant response rating,"[5]; Preemergence, 62 g ai/ha",80
same,Plant response rating,"[5]; Preemergence, 125 g ai/ha",90
same,Plant response rating,"[5]; Preemergence, 250 g ai/ha",100
same,Plant response rating,"[5]; Preemergence, 500 g ai/ha",100
same,Plant response rating,"[6]; Postemergence, 31 g ai/ha",40
same,Plant response rating,"[6]; Postemergence, 62 g ai/ha",40
same,Plant response rating,"[6]; Postemergence, 125 g ai/ha",50
same,Plant response rating,"[6]; Postemergence, 250 g ai/ha",75
same,Plant response rating,"[6]; Postemergence, 500 g ai/ha",85
same,Plant response rating,"[6]; Preemergence, 31 g ai/ha",0
same,Plant response rating,"[6]; Preemergence, 125 g ai/ha",75
same,Plant response rating,"[6]; Preemergence, 250 g ai/ha",100
same,Plant response rating,"[6]; Preemergence, 500 g ai/ha",100
same,Plant response rating,"[7]; Postemergence, 31 g ai/ha",10
same,Plant response rating,"[7]; Postemergence, 62 g ai/ha",70
same,Plant response rating,"[7]; Postemergence, 125 g ai/ha",80
same,Plant response rating,"[7]; Postemergence, 250 g ai/ha",100
same,Plant response rating,"[7]; Postemergence, 500 g ai/ha",100
same,Plant response rating,"[7]; Preemergence, 31 g ai/ha",0
same,Plant response rating,"[7]; Preemergence, 62 g ai/ha",100
same,Plant response rating,"[7]; Preemergence, 125 g ai/ha",100
same,Plant response rating,"[7]; Preemergence, 250 g ai/ha",100
same,Plant response rating,"[7]; Preemergence, 500 g ai/ha",100
same,Plant response rating,"[8]; Postemergence, 31 g ai/ha",20
same,Plant response rating,"[8]; Postemergence, 62 g ai/ha",20
same,Plant response rating,"[8]; Postemergence, 125 g ai/ha",20
same,Plant response rating,"[8]; Postemergence, 250 g ai/ha",30
same,Plant response rating,"[8]; Postemergence, 500 g ai/ha",30
same,Plant response rating,"[8]; Preemergence, 31 g ai/ha",30
same,Plant response rating,"[8]; Preemergence, 62 g ai/ha",60
same,Plant response rating,"[8]; Preemergence, 125 g ai/ha",70
same,Plant response rating,"[8]; Preemergence, 250 g ai/ha",85
same,Plant response rating,"[8]; Preemergence, 500 g ai/ha",100
same,Plant response rating,"[9]; Postemergence, 31 g ai/ha",10
same,Plant response rating,"[9]; Postemergence, 62 g ai/ha",10
same,Plant response rating,"[9]; Postemergence, 125 g ai/ha",10
same,Plant response rating,"[9]; Postemergence, 250 g ai/ha",15
same,Plant response rating,"[9]; Postemergence, 500 g ai/ha",20
same,Plant response rating,"[9]; Preemergence, 31 g ai/ha",0
same,Plant response rating,"[9]; Preemergence, 62 g ai/ha",0
same,Plant response rating,"[9]; Preemergence, 125 g ai/ha",15
same,Plant response rating,"[9]; Preemergence, 250 g ai/ha",30
same,Plant response rating,"[9]; Preemergence, 500 g ai/ha",50
same,Plant response rating,"[10]; Postemergence, 31 g ai/ha",10
same,Plant response rating,"[10]; Postemergence, 62 g ai/ha",10
same,Plant response rating,"[10]; Postemergence, 125 g ai/ha",15
same,Plant response rating,"[10]; Postemergence, 250 g ai/ha",15
same,Plant response rating,"[10]; Postemergence, 500 g ai/ha",20
same,Plant response rating,"[10]; Preemergence, 31 g ai/ha",0
same,Plant response rating,"[10]; Preemergence, 62 g ai/ha",0
same,Plant response rating,"[10]; Preemergence, 125 g ai/ha",30
same,Plant response rating,"[10]; Preemergence, 250 g ai/ha",40
same,Plant response rating,"[10]; Preemergence, 500 g ai/ha",45
same,Plant response rating,"[11]; Postemergence, 31 g ai/ha",10
same,Plant response rating,"[11]; Postemergence, 62 g ai/ha",15
same,Plant response rating,"[11]; Postemergence, 125 g ai/ha",20
same,Plant response rating,"[11]; Postemergence, 250 g ai/ha",25
same,Plant response rating,"[11]; Postemergence, 500 g ai/ha",35
same,Plant response rating,"[11]; Preemergence, 31 g ai/ha",20
same,Plant response rating,"[11]; Preemergence, 62 g ai/ha",50
same,Plant response rating,"[11]; Preemergence, 125 g ai/ha",60
same,Plant response rating,"[11]; Preemergence, 250 g ai/ha",95
same,Plant response rating,"[11]; Preemergence, 500 g ai/ha",100
